According to US20160051665A1, “INDUCTION OF IMMUNE RESPONSE” (priority 2010, published 2016):

Key:
[1] = observation of woodchucks for drug-related toxicity; format: in vivo, woodchuck; settings: 100 mg/kg orally, weighed bi-weekly, observed daily
[2] = test system: woodchuck hepatitis virus (WHV); experiment: serum WHV DNA by dot blot hybridization in chronic WHV carrier woodchucks; format: in vivo; settings: for WHV DNA, Av(range): serum
Experimental: (§1) All experimental procedures involving woodchucks were performed under protocols approved by the Cornell University Institutional Animal Care and Use Committee. Woodchucks were born to WHV-negative females in environmentally controlled laboratory animal facilities and inoculated at 3 days of age with 5 million infectious doses of a standardized WHV inoculum (23). Woodchucks were selected as chronic WHV carriers based on persistent detection of WHV surface antigen (WHsAg) and WHV DNA in serum prior to treatments. All animals were free of HCC at the beginning of the study as determined by hepatic ultrasound examination and normal serum activity of γ-glutamyl-transferase (GGT).
(§2) Twenty adult chronically infected woodchucks were stratified by age, sex, body weight, serum viral load, and serum GGT activity into four treatment groups of five animals each. Drug was administered orally at 100 mg/kg (in sterile water), chosen after an initial dose finding trial. […] The subunit vaccine consisted of 22-nm WHsAg particles, purified by zonal ultracentrifugation from serum of WHV7P1-infected WHV carriers (24), inactivated with formalin, and adsorbed onto alum. Prior to alum adsorption, vaccine was tested in naïve, WHV-susceptible animals and no residual virus was detected. Purified WHsAg was not pretreated with enzymes that remove preS sequences.
Blood samples were obtained for WHV DNA analysis and serological testing while animals were under general anesthesia (ketamine 50 mg/kg and xylazine 5 mg/kg intramuscularly). Samples were taken prior to drug administration on the first day of treatment and at the indicated time points.
Serum WHV DNA was measured quantitatively by dot blot hybridization (assay sensitivity, ≧1.0×10^7 WHV genome equivalents per ml [WHVge/ml]) (25). Serum WHsAg, antibodies to WHV core antigen (anti-WHc), and WHV surface antigen (anti-WHs) were determined with WHV-specific enzyme immunoassays (26). Serum biochemical measurements included serum GGT, alkaline phosphatase (ALP), and marker of hepatocellular injury alanine aminotransferase (ALT), aspartate aminotransferase (AST), and sorbitol dehydrogenase (SDH) (25).
Woodchucks chronically infected with WHV experienced significant immunological responses to envelope proteins following immunization with WHsAg-containing vaccines, especially in the context of low viral and antigen loads following treatment with an effective antiviral agent, 1-(2-fluoro-5-methyl-beta-L-arabinofuranosyl)-uracil (L-FMAU) (29, 35). Since BuCas treatment might be expected to reduce the amount of MHBs in the circulation and/or alter its immunological profile, the response to BuCas administration along with WHsAg vaccine was investigated. […] Animals were scored as positive if cells proliferated above the cut-off value of 2: 3.1. […]

[3] = test system: WHV surface antigen (WHsAg); experiment: serum WHsAg enzyme immunoassay in chronic WHV carrier woodchucks; format: in vivo, woodchuck; settings: for WHsAg, Av(range): serum
Experimental: as §1
as §2, with “sequences. […]” for “sequences.”
Serum WHV DNA was measured quantitatively by dot blot hybridization (assay sensitivity, ≧1.0×10^7 WHV genome equivalents per ml [WHVge/ml]) (25). Serum WHsAg, antibodies to WHV core antigen (anti-WHc), and WHV surface antigen (anti-WHs) were determined with WHV-specific enzyme immunoassays (26). […]
Woodchucks chronically infected with WHV experienced significant immunological responses to envelope proteins following immunization with WHsAg-containing vaccines, especially in the context of low viral and antigen loads following treatment with an effective antiviral agent, 1-(2-fluoro-5-methyl-beta-L-arabinofuranosyl)-uracil (L-FMAU) (29, 35). […] Animals were scored as positive if cells proliferated above the cut-off value of 2: 3.1. […]

[4] = chronic WHV carrier woodchucks, all times tested

Question: With CCCC(=O)O[C@H]1CN2CC[C@H](O)[C@@H]2[C@@H](O)[C@H]1O [BuCas, 6-O-butanoyl castanospermine] as the molecule, how does the drug-related toxicity [1] read?
Answer: no evidence of drug-related toxicity was seen

Question: And the “viremia, in words” value [2, 4]?
Answer: not altered significantly

Question: And the “antiviral response in woodchucks” value ([2]; drug treated chronic WHV carrier woodchucks)?
Answer: no detectable antiviral response

Question: And the “WHV DNA, Av(range)” value ([2]; week 0 (baseline), chronic WHV carrier woodchucks)?
Answer: 2.7(.4-7.0) genome equivalents (×10^10)

Question: What about the “WHV DNA, Av(range)” value ([2]; week 10 (4 weeks after first vaccination), UD = <E07 GE, detection limit of dot blot hybridization) of the same molecule?
Answer: 1.9(.9-4.8) genome equivalents (×10^10)

Question: And the “antigenemia, in words” value [3, 4]?
Answer: not altered significantly

Question: What about the “WHsAg, Av(range)” value ([3]; week 0 (baseline)) of the same molecule?
Answer: .38(.28-.43) optical density units

Question: And the “WHsAg, Av(range)” value ([3]; week 10)?
Answer: .42(33-.52) optical density units
